Like-named read-outs stand apart in the source and are kept apart here.
How the values were obtained:
[1] = biological target: T1, Estrogen receptor alpha (ERα) (Homo sapiens, UniProt P03372); experiment: Receptor Selection and Amplification Technology (R-SAT) functional receptor assay, ERα; assay type: cell-based; conditions: for Emax / % Efficacy ERα: NIH3T3 cells, efficacy relative to the reference ligand Estrone; for EC50 / pEC50 ERα: transfected NIH3T3 cells, agonist activity
T1 construct: expressed in transfected cells; host or cells: NIH3T3
T1 sequence (P03372 1-595): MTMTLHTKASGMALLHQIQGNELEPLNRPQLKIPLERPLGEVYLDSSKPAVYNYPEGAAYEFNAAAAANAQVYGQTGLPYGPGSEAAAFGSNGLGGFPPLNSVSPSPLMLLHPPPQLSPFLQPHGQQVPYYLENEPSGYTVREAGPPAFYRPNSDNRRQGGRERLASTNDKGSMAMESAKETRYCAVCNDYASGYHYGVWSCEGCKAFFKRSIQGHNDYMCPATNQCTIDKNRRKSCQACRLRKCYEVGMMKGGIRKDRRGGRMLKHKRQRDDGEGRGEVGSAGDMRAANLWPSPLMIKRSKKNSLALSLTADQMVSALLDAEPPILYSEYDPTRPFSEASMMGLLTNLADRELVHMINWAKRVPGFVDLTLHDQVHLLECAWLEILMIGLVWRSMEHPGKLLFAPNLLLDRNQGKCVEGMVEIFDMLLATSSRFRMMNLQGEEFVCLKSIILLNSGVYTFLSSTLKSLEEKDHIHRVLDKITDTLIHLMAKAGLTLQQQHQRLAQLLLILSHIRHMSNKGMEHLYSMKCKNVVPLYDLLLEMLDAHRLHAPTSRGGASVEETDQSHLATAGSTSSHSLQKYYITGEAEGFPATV
Method: (§1) The functional receptor assay, Receptor Selection and Amplification Technology (R-SAT™), was used with minor modifications from the procedure described in U.S. Pat. No. 5,707,798, which is hereby incorporated by reference in its entirety, to screen compounds for efficacy at the Estrogen receptors alpha and beta (ERα, ERβ). NIH3T3 cells were grown in roller bottles to 70-80% confluence. Cells were then transfected for 12-16 h with plasmid DNAs using Polyfect (Qiagen Inc.) as per the manufacturer's protocol. R-SAT assays were typically performed by transfecting 30 ug/bottle of receptor and 50 ug/bottle of β-galactosidase plasmid DNA. All receptor and helper constructs used were in mammalian expression vectors. Helpers are defined as signaling molecules that modulate both ligand-dependent and/or ligand-independent function of the ER receptors, typically co-activators and kinases. NIH3T3 cells were transfected for 12-16 h, then trypsinized and frozen in DMSO. Frozen cells were later thawed, plated at 10,000-40,000 cells per well of a 96 well plate containing 4-(1-Phenyl-cyclohexyl)-phenol. Cells were then grown in a humidified atmosphere with 5% ambient CO2 for five days. Media was then removed from the plates and marker gene activity was measured by the addition of the β-galactosidase substrate o-nitrophenyl β-D-galactopyranoside (ONPG, in PBS with 5% NP-40). The resulting colorimetric reaction was measured in a spectrophotometric plate reader (Titertek Inc.) at 420 nM. All data were analyzed using the computer program XLFit (IDBSm).
These experiments provided a molecular profile, or fingerprint, for each agent tested at the human Estrogen receptors.

[2] = biological target: T2, Estrogen receptor beta (ERβ) (Homo sapiens, UniProt Q92731); experiment: Receptor Selection and Amplification Technology (R-SAT) functional receptor assay, ERβ; assay type: cell-based
T2 construct: expressed in transfected cells; host or cells: NIH3T3
T2 sequence (Q92731 whole entry): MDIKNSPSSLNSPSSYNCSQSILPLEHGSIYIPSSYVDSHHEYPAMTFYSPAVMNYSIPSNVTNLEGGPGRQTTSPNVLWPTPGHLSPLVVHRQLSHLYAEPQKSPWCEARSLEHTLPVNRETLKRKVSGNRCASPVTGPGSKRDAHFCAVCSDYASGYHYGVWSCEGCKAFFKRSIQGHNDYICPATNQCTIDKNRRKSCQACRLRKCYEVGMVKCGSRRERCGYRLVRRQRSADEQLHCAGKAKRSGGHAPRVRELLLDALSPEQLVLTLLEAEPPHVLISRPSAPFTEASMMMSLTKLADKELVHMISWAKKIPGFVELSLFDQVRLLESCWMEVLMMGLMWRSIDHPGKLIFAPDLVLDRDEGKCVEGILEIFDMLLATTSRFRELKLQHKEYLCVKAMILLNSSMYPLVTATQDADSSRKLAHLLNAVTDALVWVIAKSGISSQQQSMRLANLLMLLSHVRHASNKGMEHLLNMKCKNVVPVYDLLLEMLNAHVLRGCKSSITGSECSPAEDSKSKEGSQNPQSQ
Method: as §1, with “NIH3T3” for “The functional receptor assay, Receptor Selection and Amplification Technology (R-SAT™), was used with minor modifications from the procedure described in U.S. Pat. No. 5,707,798, which is hereby incorporated by reference in its entirety, to screen compounds for efficacy at the Estrogen receptors alpha and beta (ERα, ERβ). NIH3T3”, “The resulting colorimetric reaction was measured in a spectrophotometric plate reader (Titertek Inc.) at 420 nM.” left out

male Sprague-Dawley rats = experiment: CFA induced arthritis rat model assay (hot plate latency, paw thickness); assay type: in vivo; conditions: 1.0, 3.0 or 10 mg/kg s.c. daily from Day 4 after CFA
Method: Naïve, male Sprague-Dawley rats (225-250 g; n=6 per group) served as subjects. Response latencies to a noxious thermal stimulus were measured using the 52° C. hot plate test. After obtaining baseline responses, 0.1 ml of Freund's complete adjuvant (CFA) or vehicle (inactivated CFA (iCFA)) was injected into the dorsal surface of the left hind paw. Response latencies were again measured 4 days following CFA (or iCFA) administration, a time point when thermal hyperalgesia is stable. A significant decrease in the hot plate latency was interpreted as the presence of thermal hyperalgesia. Following testing, thickness of both hind paws were measured (using a micrometer) in order to quantify possible edema formation at the injection site. Various doses of 4-(1-Phenyl-cyclohexyl)-phenol (ERB-002) (1.0, 3.0 or 10 mg/kg) or vehicle (DMSO) were administered (s.c.) following testing on Day 4, and then daily following testing for a period of 3 days.

[3] = test system: immature female Sprague-Dawley rats; experiment: Uterotrophic in vivo assay (uterine weight); parameters: species or system rat; conditions: 10, 30 or 100 mg/kg s.c. daily for 3 days; FIG. 4
Method: The effect of ERB-002 on uterine weight was assessed based on the previously published method of Harris et al., Endocrin, 2003, 143:4172, which is hereby incorporated by reference in its entirety. Naïve, female Sprague-Dawley rats (30-40 g; n=6 per group) served as subjects. Rats received daily subcutaneous injections of vehicle (100% DMSO), PPT (1.0 mg/rat)), a reportedly selective ERα agonist (Stauffer, 2000, J Med Chem 43:4934) or various doses of ERB-002 (10, 30 or 100 mg/kg) for a total of 3 days. Approximately 24 hours after the final injection, the rats were sacrificed, the uteri removed, trimmed of adhesions, fluid expelled and then weighed. Uterine weight was normalized as a percentage of total body weight by the following formula: % TBW=[(uterus weight (in mg)[…])/(body weight (in g))]*100.

[4] = R-SAT, NIH3T3 cells, efficacy relative to the reference ligand Estrone, read-out: % Efficacy ERβ
[5] = R-SAT, transfected NIH3T3 cells, agonist activity, read-out: pEC50 ERβ (converted)
[6] = R-SAT, NIH3T3 cells, efficacy relative to the reference ligand Estrone
[7] = R-SAT, transfected NIH3T3 cells, agonist activity

Row | Emax [1] [%] | EC50 [1] [nM] | Emax [2, 4] [%] | EC50 [2, 5] [nM] | Structure (SMILES) | further results
1 | 80 | 251 | 46 | 6.31 | Oc1ccc(C2(c3ccccc3)CCCCCCC2)cc1 [ERB-017, 4-(1-Phenyl-cyclooctyl)-phenol] | –
2 | – | – | – | – | Oc1ccc(C2(c3ccc(F)c(F)c3)CCCCC2)cc1 [ERB-009] | % Efficacy ERα [1]: 100%; pEC50 ERα [1]: 5.4; % Efficacy ERβ [2, 6]: 138%; pEC50 ERβ [2, 7]: 7.2
3 | 120 | 1260 | 87 | 79.4 | Oc1ccc(C2(c3ccc(F)cc3)CCCCCC2)cc1O [ERB-014, 4-[1-(4-Fluoro-phenyl)-cycloheptyl]-benzene-1,2-diol] | –
4 | 95 | 2510 | 46 | 63.1 | Oc1ccc(C2(c3ccccc3)CCC(C(F)(F)F)CC2)cc1 (stereo not shown) [ERB-030, 4-(1-Phenyl-[4-(trifluoromethyl)-cyclohexyl])-phenol] | –
5 | – | – | – | – | Oc1ccc(C2(c3ccc(F)cc3)CCC(C(F)(F)F)CC2)cc1 (stereo not shown) [ERB-031, 4-(1-(4-Flourophenyl)-[4-(trifluoromethyl)-cyclohexyl])-phenol] | % Efficacy ERα [1]: 124%; pEC50 ERα [1]: 5.6; % Efficacy ERβ [2, 6]: 62%; pEC50 ERβ [2, 7]: 6.1
6 | 20 | > 10000 | 37 | 79.4 | Oc1ccc(C2(c3ccc(F)cc3F)CCCCC2)cc1 [ERB-011, 4-(1-(2,4-Difluoro-phenyl)-cyclohexyl)-phenol] | –
7 | 114 | 1580 | 48 | 7.94 | CC(C)C1CCC(c2ccc(O)cc2)(c2cccc(F)c2)CC1 (stereo not shown) [ERB-037, 4-[1-(3-Fluoro-phenyl)-4-isopropyl-cyclohexyl]-phenol] | –
8 | 69 | 631 | 41 | 126 | Oc1ccc(C2(c3ccccc3)CCCCCC2)cc1 [ERB-012, 4-(1-Phenyl-cycloheptyl)-phenol] | –

Row | Structure (SMILES) | Emax [1] [%] | EC50 [1] [nM] | Emax [2, 4] [%] | EC50 [2, 5] [nM] | further results
9 | Oc1ccc(C2(c3ccccc3)CCCCC2)cc1 [ERB-002, 4-(1-Phenylcyclohexyl)phenol] | 50 | 3160 | – | – | reversal of thermal hyperalgesia (52° C. hot plate latency) (male Sprague-Dawley rats; FIG. 2): dose dependent reversal of thermal hyperalgesia; reversal of edema (paw thickness) (male Sprague-Dawley rats; FIG. 3): dose dependent reversal of edema; uterotrophic properties (uterine weight as % of total body weight) [3]: does not display uterotrophic properties; EC50 [2]: 63.1 nM; Emax ([2]; NIH3T3, read-out: % Efficacy ERβ): 85%; selectivity of activation of ERβ relative to ERα ([2]; R-SAT, Table 1 and FIG. 1): selectively activates Estrogen beta receptor (ERβ) relative to the Estrogen alpha receptor (ERα)
